Measurements: patent US20190231785A1, “PHOSPHODIESTERASE INHIBITOR TREATMENT” (Cyrano Therapeutics, Inc., priority 2012, published 2019)
Marks after values point to notes of the source that are not given here.

Tested on: patients with hyposmia
Assay: Olfactometry (DT, RT, ME, H; forced-choice, three-stimuli, stepwise-staircase, four odors), open trial of oral theophylline
Type: in vivo, human
From the text: Patients initially reported their sensory dysfunction as either loss of taste (e.g., flavor) and/or smell function. This subjective response was documented by objective psychophysical measurements of olfactory function administered to each patient by use of a forced-choice, three-stimuli, stepwise-staircase technique in a fixed, controlled design (1, 53). Efficacy of this technique and results of testing were previously documented in a double-blind clinical trial (53). Four odors were used; they were pyridine (dead-fish odor), nitrobenzene (bitter-almond odor), thiophene (petroleum-like odor) and amyl acetate (banana-oil odor). Detection thresholds (DT), recognition thresholds (RT) and magnitude estimation (ME) values for each odor were determined as previously described (1, 53). Thresholds were converted into bottle units (BU) as previously described (53) and results reported as M±SEM of correct responses for each odor in each treatment group; ME was reported in % and results calculated to obtain M±SEM for each treatment group for all correct responses using data for the four highest odor concentrations presented (from 10^−2M—an absolute odor concentration).
In addition, each patient graded the hedonic (H) value of each odor presented for these same odor concentrations (from 10^−2M—an absolute odor concentration using a −100-0-+100 scale). […] Results were obtained by calculating the arithmetical sum of each correct recognition response for each odor with respect to its pleasantness, unpleasantness or neutrality. Arithmetic M±SEM were obtained for each treatment group for each odor presented.
After determination of hyposmia, patients were treated in an open label, fixed design, controlled open trial. Patients were given an oral extended release theophylline in divided daily doses taken in the middle of breakfast and lunch. All patients were initially given 200 mg of theophylline; changes in this dose were made based upon subjective responses to therapy. If at a subsequent return visit, patients reported ≥5% subjective improvement in overall smell function, they continued on this same dose of theophylline and were reevaluated after four to six months of continued treatment. Results from any subsequent return from these improved patients were not included in any subsequent data report. All subsequent comparisons between treated and untreated patients were made only between those patients continuing in the study compared to their own measurements obtained in the untreated state. If patients reported <5% subjective improvement, their theophylline dose was increased by 200 mg daily and they were scheduled for retesting at the study site after two to four months at this new dosage. For patients that reported <5% improvement, this sequence continued until patients reached 800 mg of theophylline, at which time the study was considered completed.
Patients returned for reevaluation after two to four months of treatment. Measurements of blood serum theophylline were measured by a fluorescence polarization assay (Abbott, Chicago, Ill.). At this time, subjective changes in smell function were measured independently (compared to patient's memory of previous normal smell function monitored by use of the patients' daily measurements) using the scale from −100-0-+100 previously described (vs). After independently recording their subjective responses, smell function was measured for all four odors with DT, RT, ME and H determined without recourse to prior measurements.
Since data for all measurements from each patient group (local or distant) on each dose level were combined mean and SEM for each measurement (DT, RT, ME, H) of smell function for each treatment group were calculated on this basis. Differences in measurements between before treatment and each treatment level were calculated and significance of differences estimated using Student t tests (values p<0.05 considered significant). […]

[1] = Type I hyposmia, oral 200 mg, after treatment (57 patients), mean ± SEM
[2] = Type I hyposmia, oral 400 mg, after treatment (33 patients), mean ± SEM
[3] = Type I hyposmia, oral 600 mg, after treatment (51 patients), mean ± SEM
[4] = Type I hyposmia, oral 800 mg, after treatment (12 patients), mean ± SEM
[5] = Type II hyposmia, oral 200 mg, after treatment (138 patients)
[6] = Type II hyposmia, oral 400 mg, after treatment (85 patients)
[7] = Type II hyposmia, oral 600 mg, after treatment (105 patients)
[8] = Type II hyposmia, oral 800 mg, after treatment (16 patients)
[9] = Type III hyposmia, oral 200 mg, after treatment (4 patients)
[10] = Type III hyposmia, oral 400 mg, after treatment (2 patients)
[11] = Type III hyposmia, oral 600 mg, after treatment (4 patients)
[12] = oral 800 mg, vs before treatment

## Cn1c(=O)c2[nH]cnc2n(C)c1=O [theophylline]
[1]
  detection threshold (DT), pyridine: 9.5 ± 0.2 BU
  hedonic value (H), amyl acetate: 4 ± 2^a %
  hedonic value (H), nitrobenzene: 4 ± 2^a %
  hedonic value (H), pyridine: −8 ± 2^a %
  hedonic value (H), thiophene: −3 ± 2^a %
  magnitude estimation (ME), amyl acetate: 6 ± 2^a %
  magnitude estimation (ME), nitrobenzene: 5 ± 2^a %
  magnitude estimation (ME), pyridine: 11 ± 2^a %
  magnitude estimation (ME), thiophene: 6 ± 2^a %
  recognition threshold (RT), pyridine: 11.0 ± 0.2^a BU
[2]
  detection threshold (DT), nitrobenzene: 9.8 ± 0.5^a BU
  detection threshold (DT), pyridine: 8.8 ± 0.5 BU
  detection threshold (DT), thiophene: 9.8 ± 0.5^a BU
  hedonic value (H), amyl acetate: 5 ± 3^a %
  hedonic value (H), nitrobenzene: 3 ± 3^a %
  hedonic value (H), pyridine: −7 ± 3^a %
  hedonic value (H), thiophene: −5 ± 2^a %
  magnitude estimation (ME), amyl acetate: 7 ± 3^a %
  magnitude estimation (ME), nitrobenzene: 8 ± 3^a %
  magnitude estimation (ME), pyridine: 12 ± 3^a %
  magnitude estimation (ME), thiophene: 7 ± 2^a %
  recognition threshold (RT), pyridine: 10.6 ± 0.4 BU
[3]
  detection threshold (DT), nitrobenzene: 9.9 ± 0.4^c BU
  detection threshold (DT), pyridine: 8.9 ± 0.3^b BU
  detection threshold (DT), thiophene: 9.4 ± 0.4^a BU
  hedonic value (H), amyl acetate: −0.4 ± 1%
  hedonic value (H), nitrobenzene: 2 ± 2%
  hedonic value (H), pyridine: −8 ± 2^a %
  hedonic value (H), thiophene: −3 ± 2^a %
  magnitude estimation (ME), amyl acetate: 5 ± 2^a %
  magnitude estimation (ME), nitrobenzene: 6 ± 2^a %
  magnitude estimation (ME), pyridine: 11 ± 3^a %
  magnitude estimation (ME), thiophene: 7 ± 2^a %
[4]
  detection threshold (DT), thiophene: 10.0 ± 0.7 BU
  hedonic value (H), amyl acetate: −1 ± 4%
  hedonic value (H), nitrobenzene: 2 ± 2^a %
  hedonic value (H), pyridine: −11 ± 5^a %
  hedonic value (H), thiophene: −4 ± 2^a %
  magnitude estimation (ME), amyl acetate: 5 ± 3^a %
  magnitude estimation (ME), nitrobenzene: 4 ± 3^a %
  magnitude estimation (ME), pyridine: 10 ± 4^a %
  magnitude estimation (ME), thiophene: 4 ± 2^a %
[5]
  detection threshold (DT), amyl acetate: 7.0 ± 0.3 BU
  detection threshold (DT), nitrobenzene: 6.9 ± 0.3^a BU
  detection threshold (DT), pyridine: 6.9 ± 0.2 BU
  detection threshold (DT), thiophene: 6.5 ± 0.3 BU
  hedonic value (H), amyl acetate: 3 ± 2%
  hedonic value (H), nitrobenzene: 7 ± 2%
  hedonic value (H), pyridine: −28 ± 2%
  hedonic value (H), thiophene: −19 ± 2%
  magnitude estimation (ME), amyl acetate: 19 ± 2%
  magnitude estimation (ME), nitrobenzene: 22 ± 2%
  magnitude estimation (ME), pyridine: 35 ± 2%
  magnitude estimation (ME), thiophene: 27 ± 2%
  recognition threshold (RT), amyl acetate: 9.3 ± 0.2 BU
  recognition threshold (RT), nitrobenzene: 8.8 ± 0.3 BU
  recognition threshold (RT), pyridine: 8.2 ± 0.2^a BU
  recognition threshold (RT), thiophene: 8.2 ± 0.3^a BU
[6]
  detection threshold (DT), amyl acetate: 6.1 ± 0.4^a BU
  detection threshold (DT), nitrobenzene: 6.3 ± 0.4^a BU
  detection threshold (DT), pyridine: 6.3 ± 0.3^a BU
  detection threshold (DT), thiophene: 5.7 ± 0.4 BU
  hedonic value (H), amyl acetate: 0.3 ± 2.8%
  hedonic value (H), nitrobenzene: 11 ± 3%
  hedonic value (H), pyridine: −34 ± 3%
  hedonic value (H), thiophene: −23 ± 3%
  magnitude estimation (ME), amyl acetate: 21 ± 3%
  magnitude estimation (ME), nitrobenzene: 27 ± 3^a %
  magnitude estimation (ME), pyridine: 41 ± 3^a %
  magnitude estimation (ME), thiophene: 31 ± 3%
  recognition threshold (RT), amyl acetate: 8.8 ± 0.4^a BU
  recognition threshold (RT), nitrobenzene: 8.2 ± 0.4^a BU
  recognition threshold (RT), pyridine: 7.7 ± 0.3^a BU
  recognition threshold (RT), thiophene: 7.6 ± 0.4^a BU
[7]
  detection threshold (DT), amyl acetate: 6.8 ± 0.3^a BU
  detection threshold (DT), nitrobenzene: 6.8 ± 0.3^a BU
  detection threshold (DT), pyridine: 6.7 ± 0.3^a BU
  detection threshold (DT), thiophene: 6.1 ± 0.3^a BU
  hedonic value (H), amyl acetate: 7 ± 2%
  hedonic value (H), nitrobenzene: 11 ± 2%
  hedonic value (H), pyridine: −25 ± 3%
  hedonic value (H), thiophene: −20 ± 2%
  magnitude estimation (ME), amyl acetate: 19 ± 2%
  magnitude estimation (ME), nitrobenzene: 24 ± 2%
  magnitude estimation (ME), pyridine: 33 ± 2%
  magnitude estimation (ME), thiophene: 27 ± 2%
  recognition threshold (RT), amyl acetate: 8.9 ± 0.3^a BU
  recognition threshold (RT), nitrobenzene: 8.4 ± 0.3 BU
  recognition threshold (RT), pyridine: 8.9 ± 0.3 BU
  recognition threshold (RT), thiophene: 8.1 ± 0.3^a BU
[8]
  detection threshold (DT), amyl acetate: 4.6 ± 0.7^a BU
  detection threshold (DT), nitrobenzene: 4.6 ± 0.9^a BU
  detection threshold (DT), pyridine: 4.7 ± 0.7^a BU
  detection threshold (DT), thiophene: 4.9 ± 0.7^a BU
  hedonic value (H), amyl acetate: 13 ± 9%
  hedonic value (H), nitrobenzene: 22 ± 11%
  hedonic value (H), pyridine: −31 ± 9%
  hedonic value (H), thiophene: −24 ± 8%
  magnitude estimation (ME), amyl acetate: 38 ± 6^e %
  magnitude estimation (ME), nitrobenzene: 42 ± 8^b %
  magnitude estimation (ME), pyridine: 43 ± 5^e %
  magnitude estimation (ME), thiophene: 33 ± 6%
  recognition threshold (RT), amyl acetate: 7.1 ± 0.6^a BU
  recognition threshold (RT), nitrobenzene: 5.1 ± 0.9^a BU
  recognition threshold (RT), pyridine: 7.1 ± 0.7^a BU
  recognition threshold (RT), thiophene: 8.0 ± 1.0 BU
[9]
  detection threshold (DT), amyl acetate: 2.8 ± 0.5 BU
  detection threshold (DT), nitrobenzene: 3.8 ± 0.7 BU
  detection threshold (DT), pyridine: 4.0 ± 0.6 BU
  detection threshold (DT), thiophene: 3.2 ± 0.8 BU
  hedonic value (H), amyl acetate: 14 ± 13%
  hedonic value (H), nitrobenzene: 13 ± 12%
  hedonic value (H), pyridine: −40 ± 13%
  hedonic value (H), thiophene: −40 ± 18%
  magnitude estimation (ME), amyl acetate: 32 ± 10%
  magnitude estimation (ME), nitrobenzene: 33 ± 8%
  magnitude estimation (ME), pyridine: 45 ± 11%
  magnitude estimation (ME), thiophene: 47 ± 15%
  recognition threshold (RT), amyl acetate: 5.2 ± 1.6 BU
  recognition threshold (RT), nitrobenzene: 5.0 ± 0.6 BU
  recognition threshold (RT), pyridine: 5.2 ± 0.5 BU
  recognition threshold (RT), thiophene: 3.8 ± 0.6 BU
[10]
  detection threshold (DT), amyl acetate: 2 BU
  detection threshold (DT), nitrobenzene: 2.5 BU
  detection threshold (DT), pyridine: 5.0 BU
  detection threshold (DT), thiophene: 1 BU
  hedonic value (H), amyl acetate: 75%
  hedonic value (H), nitrobenzene: −62%
  hedonic value (H), pyridine: −40%
  hedonic value (H), thiophene: −99%
  magnitude estimation (ME), amyl acetate: 75%
  magnitude estimation (ME), nitrobenzene: 79%
  magnitude estimation (ME), pyridine: 45%
  magnitude estimation (ME), thiophene: 99%
  recognition threshold (RT), amyl acetate: 3 BU
  recognition threshold (RT), nitrobenzene: 4.0 BU
  recognition threshold (RT), pyridine: 5.0 BU
  recognition threshold (RT), thiophene: 1 BU
[11]
  detection threshold (DT), amyl acetate: 2.5 ± 1.0 BU
  detection threshold (DT), nitrobenzene: 3.8 ± 0.9 BU
  detection threshold (DT), pyridine: 3.8 ± 0.9 BU
  detection threshold (DT), thiophene: 2.0 ± 1.0 BU
  hedonic value (H), amyl acetate: 28 ± 19%
  hedonic value (H), nitrobenzene: 12 ± 16%
  hedonic value (H), pyridine: −26 ± 22%
  hedonic value (H), thiophene: −35 ± 24%
  magnitude estimation (ME), amyl acetate: 31 ± 17%
  magnitude estimation (ME), nitrobenzene: 33 ± 13%
  magnitude estimation (ME), pyridine: 41 ± 15%
  magnitude estimation (ME), thiophene: 42 ± 20%
  recognition threshold (RT), amyl acetate: 4.8 ± 1.7 BU
  recognition threshold (RT), nitrobenzene: 4.5 ± 1.3 BU
  recognition threshold (RT), pyridine: 5.5 ± 0.9 BU
  recognition threshold (RT), thiophene: 3.8 ± 0.9 BU
Oral 200 mg (Table IV)
  decrease in H, pyridine: 2%
  decrease in H, thiophene: 2%
  increase in H, amyl acetate (more pleasant): 2%
  increase in H, nitrobenzene (more pleasant): 2%
  increase in ME, amyl acetate: 5%
  increase in ME, nitrobenzene: 5%
  increase in ME, pyridine: 6%
  increase in ME, thiophene: 5%
  total mean increase in ME, all odors: 5.1%
Oral 200 mg, vs before treatment, not statistically significant
  increase of H value, amyl acetate (more pleasant): 50%
Oral 400 mg (Table V)
  change in H, amyl acetate (decreased, became more pleasant): 1%
  change in H, nitrobenzene (decreased, became more pleasant): 4%
  change in H, pyridine (increases in H values): 9%
  change in H, thiophene (increases in H values): 7%
  increase in ME, amyl acetate: 8%
  increase in ME, nitrobenzene: 11%
  increase in ME, pyridine: 12%
  increase in ME, thiophene: 12%
Oral 400 mg, vs before treatment
  decrease of H value, thiophene (more unpleasant): 40%
Oral 400 mg, vs before treatment, not statistically significant
  increase of H value, nitrobenzene (more pleasant): 50%
Oral 600 mg (Table VI)
  total mean increase in ME, all odors: 6.9%
[12]
  decrease of H value, pyridine (more unpleasant): 55%
  decrease of H value, thiophene (more unpleasant): 37%
  increase of H value, amyl acetate (more pleasant): about 50%
  increase of H value, nitrobenzene (more pleasant): about 50%
